Laboratory results: patent US20230183219A1, “CONDENSED SUBSTITUTED HYDROPYRROLES AS ANTAGONISTS OF THE MUSCARINIC ACETYLCHOLINE RECEPTOR M4” (Vanderbilt University, priority 2020, published 2023)
pIC50: −log10 of the molar value.

Target: T1, Human M4 (Homo sapiens, UniProt P08173)
T1 construct: Human or rat M4 cDNA, along with the chimeric G protein Gqi5, were transfected into Chinese hamster ovary (CHO-K1) cells; expressed in transfected cells; host or cells: CHO-K1 (Chinese hamster ovary, ATCC), stably co-expressing Gqi5
T1 sequence (P08173 1-479): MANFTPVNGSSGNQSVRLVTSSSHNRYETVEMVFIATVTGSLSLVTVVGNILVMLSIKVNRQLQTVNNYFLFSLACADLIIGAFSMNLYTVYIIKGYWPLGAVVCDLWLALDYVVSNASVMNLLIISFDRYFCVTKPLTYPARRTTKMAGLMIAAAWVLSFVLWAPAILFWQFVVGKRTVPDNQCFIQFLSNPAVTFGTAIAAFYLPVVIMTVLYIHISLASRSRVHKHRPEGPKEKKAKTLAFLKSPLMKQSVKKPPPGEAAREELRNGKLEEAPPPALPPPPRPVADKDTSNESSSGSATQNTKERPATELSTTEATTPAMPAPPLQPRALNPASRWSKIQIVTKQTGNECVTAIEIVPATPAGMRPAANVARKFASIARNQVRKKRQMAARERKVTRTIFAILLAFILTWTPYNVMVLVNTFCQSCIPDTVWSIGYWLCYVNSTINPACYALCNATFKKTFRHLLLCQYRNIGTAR
Experiment: mAChR M4 cell-based functional assay (calcium flux, decrease of EC80 acetylcholine response)
Conditions: for remaining activity at 30 µM: % ACh maximum at 30 μM, read-out: Human M4 Emin; for pIC50: M4/Gqi5/CHO-K1 cells, decrease of response to EC80 acetylcholine
Summary of the method: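 IC50 reflects inhibition of an EC80 acetylcholine calcium response, fitted by four-parameter logistic equation. Fluo-4-loaded M4/Gqi5 CHO-K1 cells received compound (10-point, 1:3 series) 2 s into the FDSS read, then EC20 acetylcholine at 143 s and EC80 at 268 s.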

| SMILES | remaining activity at 30 µM | pIC50 |
| --- | --- | --- |
| Cc1ccc(C)c(-c2cc(C(F)(F)F)c(N[C@H]3C[C@@H]4CN(CC5CCOCC5)C[C@@H]4C3)nn2)c1 [Example 44, (3aR,5s,6aS)-N-(6-(2,5-dimethylphenyl)-4-(trifluoromethyl)pyridazin-3-yl)-2-((tetrahydro-2H-pyran-4-yl)methyl)octahydro-cyclopenta[c]pyrrol-5-amine] | 2% | 7.28 |
| Fc1ccc(C(F)(F)F)c(-c2cc(C(F)(F)F)c(N[C@H]3C[C@@H]4CN(CC5CCOCC5)C[C@@H]4C3)nn2)c1 [Example 45, (3aR,5s,6aS)-N-(6-(5-fluoro-2-(trifluoromethyl)phenyl)-4-(trifluoromethyl)pyridazin-3-yl)-2-((tetrahydro-2H-pyran-4-yl)methyl)octahydro-cyclopenta[c]pyrrol-5-amine] | 3% | 7.45 |
| Cc1c(F)cc(F)cc1-c1cc(C(F)(F)F)c(N[C@H]2C[C@@H]3CN(CC4CCOCC4)C[C@@H]3C2)nn1 [Example 46, (3aR,5s,6aS)-N-(6-(3,5-difluoro-2-methylphenyl)-4-(trifluoromethyl)pyridazin-3-yl)-2-((tetrahydro-2H-pyran-4-yl)methyl)octahydro-cyclopenta[c]pyrrol-5-amine] | 4% | 6.42 |
| [2H]C([2H])([2H])OC([2H])([2H])c1ccc(F)cc1-c1cc(C(F)(F)F)c(N[C@H]2C[C@@H]3CN(CC4CCOCC4)C[C@@H]3C2)nn1 [Example 47, (3aR,5s,6aS)-N-(6-(5-fluoro-2-((methoxy-d3)methyl-d2)phenyl)-4-(trifluoromethyl)pyridazin-3-yl)-2-((tetrahydro-2H-pyran-4-yl)methyl)octahydro-cyclopenta[c]pyrrol-5-amine] | 4% | 7.15 |
| Fc1ccc(F)c(-c2cc(C(F)(F)F)c(N[C@H]3C[C@@H]4CN(Cc5ccccn5)C[C@@H]4C3)nn2)c1 [Example 48, (3aR,5s,6aS)-N-(6-(2,5-difluorophenyl)-4-(trifluoromethyl)pyridazin-3-yl)-2-(pyridin-2-ylmethyl)octahydro-cyclopenta[c]pyrrol-5-amine] | 3% | 6.21 |
| COc1ccc(F)cc1-c1cc(C(F)(F)F)c(N[C@H]2C[C@@H]3CN(CC4CCOCC4)C[C@@H]3C2)nn1 [Example 49, (3aR,5s,6aS)-N-(6-(5-fluoro-2-methoxyphenyl)-4-(trifluoromethyl)pyridazin-3-yl)-2-((tetrahydro-2H-pyran-4-yl)methyl)octahydro-cyclopenta[c]pyrrol-5-amine] | 3% | 7.03 |
| [2H]C([2H])(C1CCOCC1)N1C[C@H]2C[C@H](Nc3nnc(-c4cc(F)ccc4F)cc3C(F)(F)F)C[C@H]2C1 [Example 50, (3aR,5s,6aS)-N-(6-(2,5-difluorophenyl)-4-(trifluoromethyl)pyridazin-3-yl)-2-((tetrahydro-2H-pyran-4-yl)methyl-d2)octahydro-cyclopenta[c]pyrrol-5-amine] | 3% | 6.84 |
| Cc1cc(-c2cc(C(F)(F)F)c(N[C@H]3C[C@@H]4CN(CC5CCOCC5)C[C@@H]4C3)nn2)c(C)cc1F [Example 51, (3aR,5s,6aS)-N-(6-(4-fluoro-2,5-dimethylphenyl)-4-(trifluoromethyl)pyridazin-3-yl)-2-((tetrahydro-2H-pyran-4-yl)methyl)octahydro-cyclopenta[c]pyrrol-5-amine] | 3% | 6.62 |
| COc1cc(C)c(-c2cc(C(F)(F)F)c(N[C@H]3C[C@@H]4CN(CC5CCOCC5)C[C@@H]4C3)nn2)cc1C [Example 52, (3aR,5s,6aS)-N-(6-(4-methoxy-2,5-dimethylphenyl)-4-(trifluoromethyl)pyridazin-3-yl)-2-((tetrahydro-2H-pyran-4-yl)methyl)octahydro-cyclopenta[c]pyrrol-5-amine] | 3% | 6.94 |
| Cc1ccc(C(F)(F)F)cc1-c1cc(C(F)(F)F)c(N[C@H]2C[C@@H]3CN(CC4CCOCC4)C[C@@H]3C2)nn1 [Example 53, (3aR,5s,6aS)-N-(6-(2-methyl-5-(trifluoromethyl)phenyl)-4-(trifluoromethyl)pyridazin-3-yl)-2-((tetrahydro-2H-pyran-4-yl)methyl)octahydro-cyclopenta[c]pyrrol-5-amine] | 3% | 6.50 |
| N#Cc1ccc(F)c(-c2cc(C(F)(F)F)c(N[C@H]3C[C@@H]4CN(CC5CCOCC5)C[C@@H]4C3)nn2)c1 [Example 54, 4-fluoro-3-(6-(((3aR,5s,6aS)-2-((tetrahydro-2H-pyran-4-yl)methyl)octahydro-cyclopenta[c]pyrrol-5-yl)amino)-5-(trifluoro-methyl)pyridazin-3-yl)benzonitrile] | 4% | 6.65 |
| N#Cc1c(F)ccc(-c2cc(C(F)(F)F)c(N[C@H]3C[C@@H]4CN(CC5CCOCC5)C[C@@H]4C3)nn2)c1F [Example 55, 2,6-difluoro-3-(6-(((3aR,5s,6aS)-2-((tetrahydro-2H-pyran-4-yl)methyl)octahydro-cyclopenta[c]pyrrol-5-yl)amino)-5-(trifluoro-methyl)pyridazin-3-yl)benzonitrile] | 4% | 6.40 |
| CCOc1ccc(-c2cc(C(F)(F)F)c(N[C@H]3C[C@@H]4CN(CC5CCOCC5)C[C@@H]4C3)nn2)c(F)c1F [Example 56, (3aR,5s,6aS)-N-(6-(4-ethoxy-2,3-difluorophenyl)-4-(trifluoro-methyl)pyridazin-3-yl)-2-((tetrahydro-2H-pyran-4-yl)methyl)octahydro-cyclopenta[c]pyrrol-5-amine] | 3% | 6.63 |
| COc1ccc(F)c(-c2cc(C(F)(F)F)c(N[C@H]3C[C@@H]4CN(CC5CCOCC5)C[C@@H]4C3)nn2)c1 [Example 57, (3aR,5s,6aS)-N-(6-(2-fluoro-5-methoxyphenyl)-4-(trifluoromethyl)pyridazin-3-yl)-2-((tetrahydro-2H-pyran-4-yl)methyl)octahydro-cyclopenta[c]pyrrol-5-amine] | 3% | 6.56 |
| FC(F)(F)Oc1ccccc1-c1cc(C(F)(F)F)c(N[C@H]2C[C@@H]3CN(CC4CCOCC4)C[C@@H]3C2)nn1 [Example 58, (3aR,5s,6aS)-2-((tetrahydro-2H-pyran-4-yl)methyl)-N-(6-(2-(trifluoro-methoxy)phenyl)-4-(trifluoromethyl)pyridazin-3-yl)octahydro-cyclopenta[c]pyrrol-5-amine] | 3% | 6.60 |
| Cc1ccc(-c2cc(C(F)(F)F)c(N[C@H]3C[C@@H]4CN(CC5CCOCC5)C[C@@H]4C3)nn2)c(C)c1 [Example 59, (3aR,5s,6aS)-N-(6-(2,4-dimethylphenyl)-4-(trifluoromethyl)pyridazin-3-yl)-2-((tetrahydro-2H-pyran-4-yl)methyl)octahydro-cyclopenta[c]pyrrol-5-amine] | 3% | 7.17 |
| N#Cc1cccc(-c2cc(C(F)(F)F)c(N[C@H]3C[C@@H]4CN(CC5CCOCC5)C[C@@H]4C3)nn2)c1F [Example 60, 2-fluoro-3-(6-(((3aR,5s,6aS)-2-((tetrahydro-2H-pyran-4-yl)methyl)octahydro-cyclopenta[c]pyrrol-5-yl)amino)-5-(trifluoro-methyl)pyridazin-3-yl)benzonitrile] | 4% | 6.63 |
| COc1ccc(-c2cc(C(F)(F)F)c(N[C@H]3C[C@@H]4CN(CC5CCOCC5)C[C@@H]4C3)nn2)c(F)c1 [Example 61, (3aR,5s,6aS)-N-(6-(2-fluoro-4-methoxyphenyl)-4-(trifluoromethyl)pyridazin-3-yl)-2-((tetrahydro-2H-pyran-4-yl)methyl)octahydro-cyclopenta[c]pyrrol-5-amine] | 3% | 6.63 |
| COc1ccc(-c2cc(C(F)(F)F)c(N[C@H]3C[C@@H]4CN(CC5CCOCC5)C[C@@H]4C3)nn2)c(F)c1F [Example 62, (3aR,5s,6aS)-N-(6-(2,3-difluoro-4-methoxyphenyl)-4-(trifluoromethyl)pyridazin-3-yl)-2-((tetrahydro-2H-pyran-4-yl)methyl)octahydro-cyclopenta[c]pyrrol-5-amine] | 3% | 6.59 |
| O=C1Cc2cc(-c3cc(C(F)(F)F)c(N[C@H]4C[C@@H]5CN(CC6CCOCC6)C[C@@H]5C4)nn3)ccc2N1 [Example 63, 5-(6-(((3aR,5s,6aS)-2-((tetrahydro-2H-pyran-4-yl)methyl)octahydro-cyclopenta[c]pyrrol-5-yl)amino)-5-(trifluoro-methyl)pyridazin-3-yl)indolin-2-one] | 3% | 7.02 |
